Test results as given in publication PMC7565984, “A Phosphorylation-Induced Switch in the Nuclear Localization Sequence of the Intrinsically Disordered NUPR1 Hampers Binding to Importin” (Biomolecules, 2020).
Where a SMILES comes first, the peptide text is derived from it.

Legend:
[1] = Translational diffusion by NMR DOSY (hydrodynamic properties); type: physicochemical; settings: for D, translational diffusion coefficient: 283 K, pH 7.2, 50-mM deuterated Tris, 100% D2O, peptide 120 μM; for Rh, hydrodynamic radius from D: from the translational diffusion coefficient of dioxane (Rh = 2.12 Å) added to each sample
Method: Concentrations of peptides in all DOSY experiments were 120 μM, and 128 scans, where the gradient strength was varied, were acquired for each curve. Translational self-diffusion measurements were performed with the pulsed gradient spin-echo sequence in the presence of 100% D2O. Experimental details have been described elsewhere. Briefly, the gradient strength was varied in sixteen linear steps between 2% and 95% of the total power of the gradient coil. The gradient strength was previously calibrated by using the value of the translational diffusion coefficient, D, for the residual proton water line in a sample containing 100% D2O in a 5-mm tube [34]. In our experiments for each peptide, the duration of the gradient was 2.25 ms, the time between the two pulse gradients in the pulse sequence was set to 200 ms, and the recovery delay between the bipolar gradients was set to 100 μs. The methyl groups with signals between 1.0 and 0.80 ppm were used for integration. Fitting of the exponential curves obtained from experimental data was carried out with KaleidaGraph (Synergy Software, Version 3.5), as described. A final concentration of 1% of dioxane, which was assumed to have a hydrodynamic radius Rh = 2.12 Å [34], was added to the solutions of each of the peptides to have a comparison for estimating their sizes.

[2] = target: T1, ΔImpα3 (importin α3 without the IBB domain, residues 64-521) (Homo sapiens, UniProt O00629); assay: ITC binding of NLS-NUPR1 peptides / NUPR1 to ΔImpα3; settings: for ΔH (binding enthalpy), ΔImpα3: absolute error 0.5 kcal/mol; for −TΔS (entropic contribution), ΔImpα3: calculated from Kd and ΔH, absolute error 0.7 kcal/mol
T1 construct: The His-tagged ΔImpα3 (residues 64-521) was obtained from BL21 (DE3) cells as described; His-tag; made in house; host or cells: Escherichia coli BL21 (DE3)
T1 sequence (O00629 64-521): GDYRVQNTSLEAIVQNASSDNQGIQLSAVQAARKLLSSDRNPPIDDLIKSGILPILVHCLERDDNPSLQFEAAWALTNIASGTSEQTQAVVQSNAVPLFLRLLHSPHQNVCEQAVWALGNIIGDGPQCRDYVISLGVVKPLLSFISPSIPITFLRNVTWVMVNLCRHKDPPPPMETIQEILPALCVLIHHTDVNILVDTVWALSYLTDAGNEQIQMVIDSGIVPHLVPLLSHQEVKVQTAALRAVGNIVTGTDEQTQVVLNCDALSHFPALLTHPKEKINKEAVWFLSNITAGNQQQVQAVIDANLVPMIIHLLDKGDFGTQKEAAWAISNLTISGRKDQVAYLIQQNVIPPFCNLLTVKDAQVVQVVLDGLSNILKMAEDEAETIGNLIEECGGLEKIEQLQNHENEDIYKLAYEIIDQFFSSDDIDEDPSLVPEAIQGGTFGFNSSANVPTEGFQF
Method: (§1) The experimental set-up and data processing of ITC experiments has been described previously. Calorimetric titrations, performed in an Auto-iTC200 calorimeter (MicroCal, Malvern-Panalytical, Malvern, UK) consisted of series of 19 2-μL injections, with 150 s time spacing and a 750-rpm stirring speed. Impα3 or ΔImpα3 (at 10–20 μM) was loaded into the calorimetric cell and NLS-NUPR1 peptides in the syringe (150–300 μM); all solutions were prepared in buffer Tris 50 mM, pH 8. […] The binding affinity (association constant) and the binding enthalpy were estimated through a least-squares nonlinear regression data analysis, from which the Gibbs energy and the entropic contribution to the binding were calculated using well-known thermodynamic relationships. Since the binding stoichiometry is constrained by the model, the parameter n provides a fraction of the active or binding competent protein. Experiments for each peptide and importin species were performed, at least, in duplicates.

[3] = target: T2, human importin α3 (Impα3) (Homo sapiens, UniProt O00629); assay: ITC binding of NLS-NUPR1 peptides / NUPR1 to Impα3; settings: for ΔH (binding enthalpy), Impα3 / −TΔS (entropic contribution), Impα3 / Kd: Tris 50 mM pH 8; for ΔH (binding enthalpy), Impα3: absolute error 0.5 kcal/mol; for −TΔS (entropic contribution), Impα3: calculated from Kd and ΔH, absolute error 0.7 kcal/mol; for Kd: importin 10–20 μM in cell, peptide 150–300 μM in syringe, 1:1 model, at least duplicates, relative error 30%, read-out: Kd (dissociation constant), Impα3
T2 construct: although the IBB region maintains its independence within the whole Impα3 in terms of conformation; His-tag (N); made in house; host or cells: Escherichia coli BL21 (DE3)
T2 sequence (O00629 1-521): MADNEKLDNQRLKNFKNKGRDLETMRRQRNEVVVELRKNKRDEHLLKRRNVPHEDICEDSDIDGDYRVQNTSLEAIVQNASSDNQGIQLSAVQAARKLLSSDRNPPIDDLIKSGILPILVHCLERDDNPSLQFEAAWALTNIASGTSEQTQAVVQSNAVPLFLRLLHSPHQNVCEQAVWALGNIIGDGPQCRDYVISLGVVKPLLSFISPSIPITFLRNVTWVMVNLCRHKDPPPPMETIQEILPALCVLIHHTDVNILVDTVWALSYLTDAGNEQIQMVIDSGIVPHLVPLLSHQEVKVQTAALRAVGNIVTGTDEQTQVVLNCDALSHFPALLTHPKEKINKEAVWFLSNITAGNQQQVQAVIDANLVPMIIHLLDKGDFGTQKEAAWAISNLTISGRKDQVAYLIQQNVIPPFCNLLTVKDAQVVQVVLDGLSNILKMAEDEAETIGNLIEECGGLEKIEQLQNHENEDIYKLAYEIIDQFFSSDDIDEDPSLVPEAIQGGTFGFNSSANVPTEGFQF
Method: as §1

[4] = ITC, 298 K, absolute error 0.2, value in parenthesis = fixed in the fit due to low affinity

SMILES | D, translational diffusion coefficient [1] [cm^2 s^−1 × 10^6] | Rh, hydrodynamic radius from D [1] [Å] | ΔH (binding enthalpy), ΔImpα3 ([2]; ITC, 298 K, Tris 50 mM pH 8) [kcal/mol] | −TΔS (entropic contribution), ΔImpα3 ([2]; ITC, 298 K, Tris 50 mM pH 8) [kcal/mol] | Kd ([2]; ITC, 298 K, Tris 50 mM pH 8, importin 10–20 μM in cell, peptide 150–300 μM in syringe, 1:1 model, at least duplicates, relative error 30%, read-out: Kd (dissociation constant), ΔImpα3) [µM] | ΔH (binding enthalpy), Impα3 ([3]; ITC, 298 K) [kcal/mol] | −TΔS (entropic contribution), Impα3 ([3]; ITC, 298 K) [kcal/mol] | Kd ([3]; ITC, 298 K) [µM] | Experimental binding free energy, ΔImpα3 ([2]; from ITC, Table 2, 298 K) [kcal/mol] | Experimental binding free energy, Impα3 ([3]; from ITC, Table 2, 298 K) [kcal/mol] | n (stoichiometry; fraction of binding-competent protein), ΔImpα3 [2, 4] | n (stoichiometry; fraction of binding-competent protein), Impα3 [3, 4] | Decrease of the affinity for Impα3 relative to wt peptide ([3]; from ITC Kd values)
CC(=O)N[C@@H](Cc1ccc(O)cc1)C(=O)N[C@H](C(=O)N[C@@H](CC(N)=O)C(=O)N[C@@H](CCCNC(=N)N)C(=O)N1CCC[C@H]1C(=O)N[C@@H](CO)C(=O)N1CCC[C@H]1C(=O)NCC(=O)NCC(=O)N[C@@H](Cc1c[nH]cn1)C(=O)N[C@@H](CCC(=O)O)C(=O)N[C@@H](CCCNC(=N)N)C(=O)N[C@@H](CCCCN)C(=O)N[C@@H](CC(C)C)C(=O)N[C@H](C(=O)N[C@@H](CCC(=O)O)C(=O)N[C@@H](C)C(=O)N[C@@H](CC(C)C)C(=O)N[C@@H](CCC(N)=O)C(=O)N[C@@H](CC(N)=O)C(=O)N[C@@H](CO)C(=O)N[C@@H](CCC(=O)O)C(N)=O)C(C)C)[C@@H](C)O [T68EK69A] (Ac-YTNRPSPGGHERKLVEALQNSE-NH2) | 1.87 ± 0.08 | 11 ± 1 | -21.2 | 14.7 | 17 | -7.5 | 1.0 | 17 | – | – | – | – | –
CC(=O)N[C@@H](Cc1ccc(O)cc1)C(=O)N[C@H](C(=O)N[C@@H](CC(N)=O)C(=O)N[C@@H](CCCNC(=N)N)C(=O)N1CCC[C@H]1C(=O)N[C@@H](CO)C(=O)N1CCC[C@H]1C(=O)NCC(=O)NCC(=O)N[C@@H](Cc1c[nH]cn1)C(=O)N[C@@H](CCC(=O)O)C(=O)N[C@@H](CCCNC(=N)N)C(=O)N[C@@H](C)C(=O)N[C@@H](CC(C)C)C(=O)N[C@H](C(=O)N[C@@H](CCC(=O)O)C(=O)N[C@@H](CCCCN)C(=O)N[C@@H](CC(C)C)C(=O)N[C@@H](CCC(N)=O)C(=O)N[C@@H](CC(N)=O)C(=O)N[C@@H](CO)C(=O)N[C@@H](CCC(=O)O)C(N)=O)C(C)C)[C@@H](C)O [K65AT68E] (Ac-YTNRPSPGGHERALVEKLQNSE-NH2) | 1.76 ± 0.06 | 12 ± 1 | -17.9 | 11.3 | – | -7.8 | 1.4 | – | – | – | – | – | –
CC(=O)N[C@@H](Cc1ccc(O)cc1)C(=O)N[C@H](C(=O)N[C@@H](CC(N)=O)C(=O)N[C@@H](CCCNC(=N)N)C(=O)N1CCC[C@H]1C(=O)N[C@@H](CO)C(=O)N1CCC[C@H]1C(=O)NCC(=O)NCC(=O)N[C@@H](Cc1c[nH]cn1)C(=O)N[C@@H](CCC(=O)O)C(=O)N[C@@H](CCCNC(=N)N)C(=O)N[C@@H](C)C(=O)N[C@@H](CC(C)C)C(=O)N[C@H](C(=O)N[C@@H](CCC(=O)O)C(=O)N[C@@H](C)C(=O)N[C@@H](CC(C)C)C(=O)N[C@@H](CCC(N)=O)C(=O)N[C@@H](CC(N)=O)C(=O)N[C@@H](CO)C(=O)N[C@@H](CCC(=O)O)C(N)=O)C(C)C)[C@@H](C)O [K65AT68EK69A] (Ac-YTNRPSPGGHERALVEALQNSE-NH2) | 2.4 ± 0.2 | 9 ± 2 | -28.5 | 22.2 | – | -16.3 | – | 27 | – | – | – | – | –
CC(=O)N[C@@H](Cc1ccc(O)cc1)C(=O)N[C@H](C(=O)N[C@@H](CC(N)=O)C(=O)N[C@@H](CCCNC(=N)N)C(=O)N1CCC[C@H]1C(=O)N[C@@H](CO)C(=O)N1CCC[C@H]1C(=O)NCC(=O)NCC(=O)N[C@@H](Cc1c[nH]cn1)C(=O)N[C@@H](CCC(=O)O)C(=O)N[C@@H](CCCNC(=N)N)C(=O)N[C@@H](CCCCN)C(=O)N[C@@H](CC(C)C)C(=O)N[C@H](C(=O)N[C@@H](CCC(=O)O)C(=O)N[C@@H](CCCCN)C(=O)N[C@@H](CC(C)C)C(=O)N[C@@H](CCC(N)=O)C(=O)N[C@@H](CC(N)=O)C(=O)N[C@@H](CO)C(=O)N[C@@H](CCC(=O)O)C(N)=O)C(C)C)[C@@H](C)O [T68E] (Ac-YTNRPSPGGHERKLVEKLQNSE-NH2) | 2.17 ± 0.06 | 10 ± 1 | -17.5 | 10.8 | – | -11.1 | 4.7 | – | – | – | – | – | –
CC(=O)N[C@@H](Cc1ccc(O)cc1)C(=O)N[C@H](C(=O)N[C@@H](CC(N)=O)C(=O)N[C@@H](CCCNC(=N)N)C(=O)N1CCC[C@H]1C(=O)N[C@@H](CO)C(=O)N1CCC[C@H]1C(=O)NCC(=O)NCC(=O)N[C@@H](Cc1c[nH]cn1)C(=O)N[C@@H](CCC(=O)O)C(=O)N[C@@H](CCCNC(=N)N)C(=O)N[C@@H](CCCCN)C(=O)N[C@@H](CC(C)C)C(=O)N[C@H](C(=O)N[C@H](C(=O)N[C@@H](CCCCN)C(=O)N[C@@H](CC(C)C)C(=O)N[C@@H](CCC(N)=O)C(=O)N[C@@H](CC(N)=O)C(=O)N[C@@H](CO)C(=O)N[C@@H](CCC(=O)O)C(N)=O)[C@@H](C)O)C(C)C)[C@@H](C)O [wt] (Ac-YTNRPSPGGHERKLVTKLQNSE-NH2) | 1.85 ± 0.04 | 11 ± 1 | -3.7 | -4.5 | – | 0.8 | -8.7 | – | -8.22 | -7.87 | – | – | –
CC(=O)N[C@@H](Cc1ccc(O)cc1)C(=O)N[C@H](C(=O)N[C@@H](CC(N)=O)C(=O)N[C@@H](CCCNC(=N)N)C(=O)N1CCC[C@H]1C(=O)N[C@@H](CO)C(=O)N1CCC[C@H]1C(=O)NCC(=O)NCC(=O)N[C@@H](Cc1c[nH]cn1)C(=O)N[C@@H](CCC(=O)O)C(=O)N[C@@H](CCCNC(=N)N)C(=O)N[C@@H](CCCCN)C(=O)N[C@@H](CC(C)C)C(=O)N[C@H](C(=O)N[C@H](C(=O)N[C@@H](C)C(=O)N[C@@H](CC(C)C)C(=O)N[C@@H](CCC(N)=O)C(=O)N[C@@H](CC(N)=O)C(=O)N[C@@H](CO)C(=O)N[C@@H](CCC(=O)O)C(N)=O)[C@@H](C)O)C(C)C)[C@@H](C)O [K69A] (Ac-YTNRPSPGGHERKLVTALQNSE-NH2) | 1.79 ± 0.06 | 12 ± 2 | -21.3 | 14.3 | – | -10.8 | 4.0 | – | – | – | 1.4 | 1.3 | six-fold
